EP2711366A1, “Cationic triphenylamine derivatives activable by visible and Infra Red light for inducing and imaging apoptosis in cancer cells” (Institut Curie, priority 2012, dated 2014)

What was measured:
[1] = Dark toxicity (MTT assay, without illumination); format: cell-based; conditions: human; MCF-7 cells, tested in dark; read-out: TC50 (toxicity concentration 50%), dark toxicity
Experimental: (§1) Different experiments were conducted and described below: • MCF7 cells were treated with 2µM of TP2Py or TP3Bzim and exposed to illumination (Fig.9A); • HeLa cells were treated with 2µM of TP2Py or TP3Bzim and exposed to illumination (Fig.9B); • MCF7 cells were treated with TP2Py, 40 min illumination (black circles) or without illumination (white circles) (Fig.9C) • HeLa cells were treated with TP2Py [30 min illumination (black circles) or without illumination (white circles)] or TP3Bzim [15 min illumination (black triangles) or without illumination (white triangles)]
(§2) For each experiment, the source of excitation was a Mercury lamp (130W; 380-600nm) with an excitation filter centered at 452nm (± 45 nm), irradiance, 60mW/cm^2.
(§3) First, the experiment was calibrated by determining the time of illumination exposure which leads to the toxicity 50%, for a given concentration of TPA (2 µM) and for an irradiance of 60mW/cm^2. […] This characteristic time was then used for the plots shown in Fig. 9C and 9D which represent the cell viability as a function of TPA concentration (in HeLa and MCF-7 cells, respectively).

living MCF-7 cells = assay: One-photon confocal fluorescence microscopy, photo-induced nuclear translocation and membrane blebbing; format: cell-based
Experimental: One-photon epifluorescence and confocal images were obtained using a SP2 confocal microscope (Leica MicroSystem) equipped with an incubation chamber (37°C, CO2 5%). Excitation and emission filters for epifluorescence were 450-490 nm and 515-700 nm, respectively. A continuous laser line (458 nm) was used for excitation in the confocal mode.
The photo-induced nuclear translocation and membrane blebbing were next assessed using confocal fluorescence microscopy [λexc = 458 nm; emission slit settings: 560-720nm and 530-690nm for TP2Py and TP3Bzim, respectively] under experimental conditions similar to those described in experiment 1 for epifluorescence experiments. The corresponding transmission images illustrating the concomitant membrane blebbing are shown below the confocal fluorescence images. Living MCF7 cells were incubated with 2µM TP3Bzim or TP2Py for 2 hours before observation. As shown in Fig. 5A (TP2Py) and in Fig. 5B (TP3BZim), the results obtained with confocal imaging were similar to those obtained with epifluorescence imaging (experiment 1), with however, some discrepancies in the time courses of event appearance, most likely due to the power of the excitation source which is different between epifluorescence and confocal experiments (see below). […] Based on both criteria (re-localization of the fluorescence signal and the formation of blebs), the deduced fluences were 22 and 40 J/cm^2 for TP2Py and TP3Bzim, respectively. […]
The TP2Py compound at a concentration of 2 µM was first incubated with living MCF-7 cells for 2 hours and then observed with confocal microscope with varying illumination power of the laser source [λ=458 nm; emission slit setting: 560-720 nm]. […] For each condition, the fluorescence intensity in ROIs corresponding to the nucleus was plotted as a function of time (the initial time value, t = 0, represents the first observation) (FIG.7C). Using integration time based on tmax values, light dose values, determined from experiments performed at irradiance of 5.6 or 30 mW/cm^2, were consistent (27.6 and 27 J/cm^2 respectively). These values are in accordance with the above-mentioned value for TP2Py (fluence, 22 J/cm^2 in Fig. 5).
Living MCF-7 cells were treated with varying concentrations of TP2Py for two hours (2µM; 0.2µM and 0.02µM) and observed with a confocal microscope [λexc = 458nm; irradiance 30mW/cm^2, emission slit setting: 560-720nm.] (FIG 8A: 2µM; FIG 8B: 0.2µM; FIGBC: 0.02µM).

[2] = system: ROS (reactive oxygen species) in MCF7 cells; assay: Fluorescence detection of ROS generation with H2DCF-DA probe, flow cytometry; format: cell-based; conditions: 2µM, 2 hours
Experimental: CF-7 cells were plated in 12-well plates (2.10^5 cells/well) and incubated with 2µM of TP2Py for 2h at 37°C. After a time illumination of 30 min [Irradiance, 40mW/cm^2. The source of excitation was a Mercury lamp (130 W; 380-600 nm) with an excitation filter centered at 452 nm (± 45 nm)], cells were gently scraped, individualized in PBS-EDTA (10 mM) and stained with 10µM of […] (H2DCF-DA) (Molecular Probe, USA) for 45 min. Cells were then washed in ice-cold HEPES buffer before analysis. Fluorescence signals of H2DCF-DA and TP2Py were measured by FACSCalibur flow cytometer using FL1 and FL2 detectors, respectively.
Different experiments are summarized below: • Control MCF7 cells were treated with DMSO (1%) (Fig.13A) without light exposure; • MCF7 cells were plated and treated with H2DCF-DA and 2µM TP2Py for 2 hours without light exposure (Fig.13B); • MCF7 cells were plated and treated with H2DCF-DA and 2µM TP2Py for 2 hours after a time illumination of 30 min (Fig.13C)
The horizontal (FL1-H) and vertical (FL2-H) axes correspond to fluorescence signals of H2DCF-DA and TP2Py, respectively.

DNA = conditions: cited from earlier work
[3] = 2µM, 2 hours, λexc 458 nm, irradiance 30 mW/cm^2

Experimental for HeLa cells: as §1, §2, §3

SMILES: C[n+]1ccc(/C=C/c2ccc(N(c3ccccc3)c3ccc(/C=C/c4cc[n+](C)cc4)cc3)cc2)cc1 [TP2Py]
- dark toxicity (concentration below which negligible) (HeLa cells): ≥ 50 µM
- CC50 [1]: > 30 µM
- time at which the first blebs appeared (living MCF-7 cells; 20nM, constant light excitation, transmission mode): 75 min
- light dose (living MCF-7 cells; 0.2µM, irradiance 30 mW/cm^2): 306 J/cm^2
- tmax of nuclear re-localization (living MCF-7 cells; 0.2µM, irradiance 30 mW/cm^2): > 2 h
- deduced fluence (re-localization of the fluorescence signal and formation of blebs) (living MCF-7 cells; 2µM, 2 hours, confocal, λexc 458 nm (Fig. 5)): 22 J/cm^2
- lag period before increase of fluorescence emission intensity in the nucleus (living MCF-7 cells; [3]): 2 to 4 min
- time of maximum fluorescence emission intensity in the nucleus (living MCF-7 cells; [3]): 8 to 10 min
- light dose (integration time based on tmax) (living MCF-7 cells; 2 µM, irradiance 5.6 mW/cm^2): 27.6 J/cm^2
- tstart of nuclear re-localization (living MCF-7 cells; 2 µM, irradiance 5.6 mW/cm^2): 50 min
- light dose (integration time based on tmax) (living MCF-7 cells; 2 µM, irradiance 30 mW/cm^2): 27 J/cm^2
- tmax of nuclear re-localization (living MCF-7 cells; 2 µM, irradiance 30 mW/cm^2): 0.25 h
- tstart of nuclear re-localization (living MCF-7 cells; 2 µM, irradiance 30 mW/cm^2): 4 min
- HMFI population (H2DCF-DA positive, TP2Py positive) ([2]; 30 min illumination, 40mW/cm^2): 15.4%
- HMFI population (H2DCF-DA positive, TP2Py positive) ([2]; without light exposure): 4.9%
- maximum of emission in vitro, DNA-bound (DNA; Allains et al. 2007): 634 nm
- λmax,emission (DNA; b156 attributes 634 nm to DNA-bound TP2Py in vitro (Allains et al. 2007)): 634 nm
